In general, Ki refers to the dissociation constant of the complex between target and ligand, obtained from inhibition or displacement. What is called Kd is the constant that tells how readily two partners part at equilibrium. As usually defined, the inhibition is the change of the read-out against control, counted positive when it falls.

Here are results for five molecules from patent US20120101110A1, “Diaza-spiro[5.5]undecanes” (priority 2010, published 2012).

In test [1] the target is T1, human orexin 1 receptors (Homo sapiens, UniProt O43613).
T1 sequence (O43613 1-425): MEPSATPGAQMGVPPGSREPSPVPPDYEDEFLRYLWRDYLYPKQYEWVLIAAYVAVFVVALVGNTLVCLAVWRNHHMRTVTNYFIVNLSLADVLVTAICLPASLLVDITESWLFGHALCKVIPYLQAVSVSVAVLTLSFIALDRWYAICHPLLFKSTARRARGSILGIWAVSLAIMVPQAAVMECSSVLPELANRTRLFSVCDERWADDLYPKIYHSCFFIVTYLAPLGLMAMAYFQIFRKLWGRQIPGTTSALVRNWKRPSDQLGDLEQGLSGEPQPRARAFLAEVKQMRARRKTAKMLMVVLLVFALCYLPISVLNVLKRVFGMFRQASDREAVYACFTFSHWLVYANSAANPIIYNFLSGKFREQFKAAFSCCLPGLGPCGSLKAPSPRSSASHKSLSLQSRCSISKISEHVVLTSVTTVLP
Nature of the test: Calcium accumulation in cells (FLIPR), hOx1R.

The target of test [2] is T2, human orexin 2 receptors (Homo sapiens, UniProt O43614).
T2 sequence (O43614 1-444): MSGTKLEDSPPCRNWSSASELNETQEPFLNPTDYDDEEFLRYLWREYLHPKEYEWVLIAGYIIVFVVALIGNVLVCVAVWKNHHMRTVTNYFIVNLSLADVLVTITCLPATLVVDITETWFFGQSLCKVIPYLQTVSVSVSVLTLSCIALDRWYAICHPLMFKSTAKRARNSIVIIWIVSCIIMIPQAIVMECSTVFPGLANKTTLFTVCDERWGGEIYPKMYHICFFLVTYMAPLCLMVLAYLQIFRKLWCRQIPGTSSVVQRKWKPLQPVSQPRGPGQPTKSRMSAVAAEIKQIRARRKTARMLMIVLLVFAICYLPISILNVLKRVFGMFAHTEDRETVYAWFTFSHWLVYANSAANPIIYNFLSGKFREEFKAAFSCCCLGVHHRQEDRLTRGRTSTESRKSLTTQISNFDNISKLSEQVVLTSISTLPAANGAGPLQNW
Nature of the test: Radioligand binding assay ([3H]-SB649868 competition), hOx2R. A digest of the protocol: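 Membranes were incubated 1 h at room temperature in 10 mM HEPES pH 7.5 with 0.5% BSA, 5 mM MgCl2, 1 mM CaCl2 and 0.05% Tween, with about 1 nM [3H]-SB649868 and test compounds in triplicate. Non-specific binding was defined with 10 μM almorexant, and bound radioactivity was counted.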

The target of test [3] is T1, human orexin 1 receptors. Put plainly: Radioligand binding assay ([3H]-SB649868 competition), hOx1R. The conditions noted are these: competition with about 1 nM [3H]-SB649868; CHO or HEK cell membranes expressing human orexin 1 receptor. A digest of the protocol: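 Membranes from hOx1R-expressing cells incubated 1 h at room temperature with about 1 nM [3H]-SB649868 and test compound, in triplicate. Buffer was 10 mM HEPES pH 7.5, 0.5% BSA, 5 mM MgCl2, 1 mM CaCl2, 0.05% tween; 10 μM almorexant defined non-specific binding. Filtration then counting of bound radioactivity; values reported as Kd.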

The target in test [4] is T2, human orexin 2 receptors. Nature of the test: Calcium accumulation in cells (FLIPR), hOx2R. The test is classed as cell-based. The conditions noted are these: cells expressing human orexin 2 receptor; inhibition of orexin A-induced calcium accumulation; Cheng and Prusoff correction.
Procedure: Cells expressing human orexin 1 or human orexin 2 receptors, were seeded at 8,000 cells/well in 384 well black-walled clear bottom, poly-D-lysine coated plates. After 24 h, the medium was removed and cells were washed once with phosphate buffered saline and serum-deprived overnight in assay buffer (130 mM NaCl, 5.4 mM KCl, 1.8 mM CaCl2, 0.8 mM MgSO4, 0.9 mM NaH2PO4, 25 mM glucose, 20 mM HEPES, pH 7.4) containing bovine serum albumin (1% w/v).
On the day of the experiment, the cells seeded in black plates were treated with assay buffer containing the Ca^2+sensitive fluorescent dye Fluo-4-AM (2 μM), and probenecid (0.1 mM). After 1 h plates were washed twice with, and resuspended in, assay buffer containing probenecid (0.1 mM) using a multi plate washer. […] Fluorescence measurements were then continued every 1 S for 120 S followed by every 4 S for 240 S.
The measurements were typically made in two sequences:
Compounds of formula I were tested usually in a concentration range from 10^−9 M to 10^−5 M. In the second round, performed one hour later (to allow for equilibration), Orexin A was tested either in the absence (calibration curves, Orexin A agonist controls) or in the presence of compounds of formula I to determine antagonism.
[5] abbreviates: competition with about 1 nM [3H]-SB649868, CHO or HEK cell membranes expressing human orexin 2 receptor, read-out: binding hOx2R Kd.

Each structure is given as a SMILES string. Read-outs that look alike come from different tables or passages of the source.

Take `COCc1cccc(-c2nn(C)nc2CN2CCCC3(CCN(c4nc(C)cc(C)n4)CC3)C2=O)c1` [Example 119, 9-(4,6-dimethylpyrimidin-2-yl)-2-((5-(3-(methoxymethyl)phenyl)-2-methyl-2H-1,2,3-triazol-4-yl)methyl)-2,9-diazaspiro[5.5]undecan-1-one]: the Ki came to 868 nM at human orexin 1 receptors [1] and 3.9 nM at human orexin 2 receptors [4]. The results for the Kd on human orexin 2 receptors [2] and at human orexin 1 receptors [3] were 28 nM and 1330 nM, respectively.

For the molecule `COc1cccc(-c2nn(C)nc2CN2CCCC3(CCN(c4nc(C)cc(C)n4)CC3)C2=O)n1` [Example 120, 9-(4,6-dimethylpyrimidin-2-yl)-2-((5-(6-methoxypyridin-2-yl)-2-methyl-2H-1,2,3-triazol-4-yl)methyl)-2,9-diazaspiro[5.5]undecan-1-one], the inhibition at 10 µM at human orexin 1 receptors [1] (read-out: FLIPR hOx1R % inhibition value) came out at 29%. Besides, the Kd at human orexin 2 receptors [2] (setting [5]) was 197 nM; at human orexin 1 receptors [3], over 10000 nM. Moreover, the Ki at human orexin 2 receptors [4] amounted to 32 nM.

In the case of `COc1cncc(-c2nn(C)nc2CN2CCCC3(CCN(c4nc(C)cc(C)n4)CC3)C2=O)c1` [Example 121, 9-(4,6-dimethylpyrimidin-2-yl)-2-((5-(5-methoxypyridin-3-yl)-2-methyl-2H-1,2,3-triazol-4-yl)methyl)-2,9 diazaspiro[5.5]undecan-1-one], the Ki amounted to 315 nM on human orexin 1 receptors [1] and 2 nM at human orexin 2 receptors [4]. Besides, the Kd came to 15 nM at human orexin 2 receptors [2] (setting [5]) and 196 nM at human orexin 1 receptors [3].

Turning to `COCc1cccc(-c2ocnc2CN2CCCC3(CCN(c4nc(C)cc(C)n4)CC3)C2=O)c1` [Example 123, 9-(4,6-dimethylpyrimidin-2-yl)-2-((5-(3-(methoxymethyl)phenyl)oxazol-4-yl)methyl)-2,9-diazaspiro[5.5]undecan-1-one], the figures for the inhibition constant (Ki) on human orexin 1 receptors [1] and on human orexin 2 receptors [4] were 1780 nM and 18 nM, respectively. Further, the Kd on human orexin 2 receptors [2] (setting [5]) was 71 nM; at human orexin 1 receptors [3] it was 3240 nM.

For the molecule `COCc1cccc(-c2oc(C)nc2CN2CCCC3(CCN(c4nc(C)cc(C)n4)CC3)C2=O)c1` [Example 124, 9-(4,6-dimethylpyrimidin-2-yl)-2-((5-(3-(methoxymethyl)phenyl)-2-methyloxazol-4-yl)methyl)-2,9 diazaspiro[5.5]undecan-1-one], the values for the Ki at human orexin 1 receptors [1] and on human orexin 2 receptors [4] were 101 nM and 1.2 nM, respectively. Besides, the Kd at human orexin 2 receptors [2] (setting [5]) turned out to be 19 nM; at human orexin 1 receptors [3], 368 nM.
